Measured values as given in ChEMBL document CHEMBL1144949, “4-Phenyl-4H-pyrans as IK(Ca) channel blockers” (Bioorg Med Chem Lett, 2003).

How the values were obtained:
Format in all cases: functional, cell-based
[1] = test system: C6-BU-1; test: IKCa channel inhibition was determined measuring ionomycin-induced Rb+ efflux of pre loaded rat C6BU1 glioma cell in comparison with Nifedipine; NA=Inactive at 1000 nM
[2] = test system: C6-BU-1; test: IKCa channel inhibition was determined measuring ionomycin-induced Rb+ efflux of pre loaded rat C6BU1 glioma cell in comparison with Nifedipine
[3] = test system: C6-BU-1; test: IKCa channel inhibition was determined at 72% residual Rb+ efflux of pre loaded rat C6BU1 glioma cell in comparison with Nifedipine

Row | Structure (SMILES) | IC50 [2] [nM] | further results
1 | CCCCOC(=O)C1=C(C)OC(C)=C(C(=O)OCCCC)C1c1ccc(Cl)cc1 |  | IC50 [1]: Not Active
2 | COC(=O)C1=C(C)OC(C)=C(C(=O)OC)C1c1ccccc1Cl | 100 | 
3 | COC(=O)C1=C(C)OC(C)=C(C(=O)OC)C1c1ccc(Cl)cc1 | 24 | 
4 | COC(=O)C1=C(C)OC(C)=C(C(=O)OC)C1c1cccc(Cl)c1 | 26 | 
5 | COC(=O)C1=C(C)OC(C)=C(C(=O)OC)C1c1ccccc1 | 160 | 
6 | CCOC(=O)C1=C(C)OC(C)=C(C(=O)OCC)C1c1ccc(Cl)cc1 | 150 | 
7 | COC(=O)C1=C(C)OC(C)=C(C(=O)OC)C1c1ccc(Cl)c(C(F)(F)F)c1 | 24 | 
8 | CC(=O)C1=C(C)OC(C)=C(C(C)=O)C1c1ccc(Cl)cc1 | 220 | 
9 | CCCOC(=O)C1=C(C)OC(C)=C(C(=O)OCCC)C1c1ccc(Cl)cc1 |  | IC50 [3]: 1000 nM
10 | CCOC(=O)C1=C(C)OC(C)=C(C(=O)OC)C1c1ccc(Cl)cc1 (racemic) | 35 | 
11 | COC(=O)C1=C(C)OC(C)=C(C(C)=O)C1c1ccc(Cl)cc1 (racemic) | 75 | 
12 | COC(=O)C1=C(C)OC(C)=C(C(C)=O)C1c1ccc(Cl)c(C(F)(F)F)c1 (racemic) | 8 | 
13 | COC(=O)C1=C(C)NC(C)=C(C(=O)OC)C1c1ccccc1[N+](=O)[O-] [NIFEDIPINE] | 1000 | 
